The subject of one data set is Kochia (Kochia scoparia). The experiment in a line: Test A postemergence. In kind it is in vivo. The settings on record: Bassia scoparia, post-emergence, 240 h; for pest or weed control at 125 g/ha: 125 g ai/ha. The procedure, abridged:
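Compounds were formulated in a non-phytotoxic solvent mixture with surfactant and applied as a preemergence directed soil spray after seeding, or sprayed postemergence over plants 2 to 10 cm tall at the one- to two-leaf stage. Evaluation after about 10 d compared treated with untreated controls, using a scale from 0 (no effect) to 100 (complete control).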

For the next data set, the system named is rice (Oryra sativa). The experiment in a line: Test B flooded paddy test. Type of data set: in vivo. The settings on record: Oryza sativa, 250 g ai/ha, Flood, read-out: Rice plant response rating. The procedure, abridged:
(§1)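 Greenhouse paddy pots with 2-leaf stage plants received compound by direct addition to floodwater 3 cm deep, kept at that level. Scored visually at 13–15 d versus controls (0 no effect; 100 complete control).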

In data set [1] the test system is ducksalad (Heteranthera limosa). The experiment in a line: Test B flooded paddy test. In kind it is in vivo. Conditions: Heteranthera limosa, 250 g ai/ha, Flood, read-out: Ducksalad plant response rating. The procedure, abridged: as §1
The test system of data set [2] is barnyardgrass (Echinochloa crus-galli). The experiment in a line: Test B flooded paddy test. In kind it is in vivo. Conditions: Echinochloa crus-galli, 250 g ai/ha, Flood, read-out: Barnyardgrass plant response rating. The procedure, abridged:
as §1

In data set [3] the test system is sedge, umbrella (small-flower umbrella sedge, Cyperus difformis). Briefly: Test B flooded paddy test. In kind it is in vivo. Conditions: Cyperus difformis, 250 g ai/ha, Flood, read-out: Sedge, Umbrella plant response rating. The essentials: as §1
[4] abbreviates: 0 to 100 scale where 0 is no effect and 100 is complete control.
Where [5] appears, read: scale of 0 to 100 where 0 is no effect and 100 is complete control.

Read-outs that look alike come from different tables or passages of the source.

`O=C1NC[C@H](c2ccc(F)c(OC(F)(F)C(F)F)c2)[C@H]1C(=O)Nc1ccccc1F` [Compound 1133]: the melting point fell in the range of 119 to 123 °C. The pest or weed control at 125 g/ha in the data set with Kochia (Kochia scoparia) (postemergence, visual injury on 0 to 100 scale (0 no effect, 100 complete control), approx. 10 d, read-out: Kochia plant response rating) is 30%. For the same compound, in the data set with Kochia (Kochia scoparia) (500 g ai/ha, postemergence, 0 to 100 scale, 0 is no effect, 100 is complete control, read-out: Kochia plant response rating), the pest or weed control at 500 g/ha amounted to 70%. In addition, the pest or weed control at 250 g/ha with rice (Oryra sativa) (setting [4]) amounted to 0%. The pest or weed control at 250 g/ha in data set [1] (setting [4]) was determined as 85%. Moreover, the pest or weed control at 250 g/ha in data set [2] (setting [4]) came to 50%. The pest or weed control at 250 g/ha in data set [3] (setting [4]) amounted to 0%.
On to `CN1C[C@H](c2ccc(C(F)(F)F)cc2)[C@@H](C(=O)Nc2ccc(F)cc2C(F)(F)F)C1=O` [Compound 942], for which the melting point is 113 to 116 °C. The pest or weed control at 125 g/ha in the data set with Kochia (Kochia scoparia) (Postemergence, visual injury after approximately 10 d, 0 to 100 scale where 0 is no effect and 100 is complete control, read-out: Plant response rating, Kochia) was found to be 30%. In addition, in the data set with rice (Oryra sativa) (setting [5]), the pest or weed control at 250 g/ha was found to be 0%. In data set [1] (setting [5]), the pest or weed control at 250 g/ha was 40%. In data set [2] (setting [5]), the pest or weed control at 250 g/ha came to 0%. Moreover, the pest or weed control at 250 g/ha in data set [3] (setting [5]) was determined as 0%.

For orientation: melting point means the temperature of the solid-liquid transition.

These data come from US12077503B2, “Substituted cyclic amides and their use as herbicides” (FMC CORPORATION, priority 2015, dated 2024).
